Results published in ChEMBL document CHEMBL1201862, “PubChem BioAssay data set” (2004).
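Step 1: Grow cells in 96-well plates. Step 2: Expose to compound for 48 hours at 5 concentrations. Step 3: Interpolate endpoints linearly; if unreached, use highest concentration. GI50 marks 50% less growth.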 The source made the active and inactive calls. Cut-off read from the data, not from the text of the source: active = GI50 up to about 1.1 µM and inactive = higher.

Assays:
Experiment in all cases: DTP human tumour cell line panel, 48 h
ACHN = system: ACHN
BT-549 = system: BT-549
CAKI-1 = system: CAKI-1
HOP-62 = system: HOP-62
HT-29 = system: HT-29
IGROV-1 = system: IGROV-1
K562 = system: K562
M14 = system: M14
Malme-3M = system: Malme-3M
NCI-H23 = system: NCI-H23
OVCAR-4 = system: OVCAR-4
RPMI-8226 = system: RPMI-8226
SF-295 = system: SF-295
SK-OV-3 = system: SK-OV-3
SN12C = system: SN12C
SNB-19 = system: SNB-19
SNB-75 = system: SNB-75
UO-31 = system: UO-31
NCI-H522 = system: NCI-H522
SF-539 = system: SF-539

SMILES | GI50 (ACHN) | GI50 (BT-549) | GI50 (CAKI-1) | GI50 (HOP-62) | GI50 (HT-29) | GI50 (IGROV-1) | GI50 (K562) | GI50 (M14) | GI50 (Malme-3M) | GI50 (NCI-H23) | GI50 (OVCAR-4) | GI50 (RPMI-8226) | GI50 (SF-295) | GI50 (SK-OV-3) | GI50 (SN12C) | GI50 (SNB-19) | GI50 (SNB-75) | GI50 (UO-31) | GI50 (NCI-H522) | GI50 (SF-539)
Cc1ccc(OCC2OC(n3cnc4nc(Nc5ccc(Cl)c(Cl)c5)nc(Cl)c43)CC2Oc2ccc(C)cc2)cc1 (stereo not drawn) | > 100 µM (inactive) | > 100 µM (inactive) | > 100 µM (inactive) | > 100 µM (inactive) | > 100 µM (inactive) | 0.855 µM (active) | > 100 µM (inactive) | > 100 µM (inactive) | > 100 µM (inactive) | > 100 µM (inactive) | > 100 µM (inactive) | > 100 µM (inactive) | > 100 µM (inactive) | > 100 µM (inactive) | > 100 µM (inactive) | > 100 µM (inactive) | > 100 µM (inactive) | > 100 µM (inactive) | – | –
CCOC(=O)C1=c2[nH]c3cccc4cccc(c43)n2C(=O)CC1 | > 100 µM (inactive) | > 100 µM (inactive) | > 100 µM (inactive) | > 100 µM (inactive) | – | 49.4 µM (inactive) | > 100 µM (inactive) | > 100 µM (inactive) | – | > 100 µM (inactive) | > 100 µM (inactive) | > 100 µM (inactive) | > 100 µM (inactive) | > 100 µM (inactive) | > 100 µM (inactive) | > 100 µM (inactive) | > 100 µM (inactive) | 38.6 µM (inactive) | – | –
COC(=O)CCCc1c(-c2[nH]c3ccccc3c2CCCC(=O)OC)[nH]c2ccccc12 | > 100 µM (inactive) | > 100 µM (inactive) | > 100 µM (inactive) | > 100 µM (inactive) | > 100 µM (inactive) | > 100 µM (inactive) | > 100 µM (inactive) | > 100 µM (inactive) | 39.3 µM (inactive) | > 100 µM (inactive) | – | > 100 µM (inactive) | > 100 µM (inactive) | > 100 µM (inactive) | > 100 µM (inactive) | > 100 µM (inactive) | 13.6 µM (inactive) | > 100 µM (inactive) | > 100 µM (inactive) | > 100 µM (inactive)
COc1ccc(N2C(=O)C3c4[nH]c5ccc(OC)cc5c4C4CCC(C(C)C)CC4C3C2=O)cc1 (stereo not drawn) | > 100 µM (inactive) | > 100 µM (inactive) | > 100 µM (inactive) | 12 µM (inactive) | > 100 µM (inactive) | > 38 µM (inactive) | 18.3 µM (inactive) | 34.1 µM (inactive) | – | > 100 µM (inactive) | > 55.1 µM (inactive) | > 100 µM (inactive) | 31.2 µM (inactive) | 36.9 µM (inactive) | > 100 µM (inactive) | 35.6 µM (inactive) | 17.7 µM (inactive) | > 100 µM (inactive) | 18.1 µM (inactive) | –
Cc1occc1/C(S)=N\c1ccc(Cl)c(C(=O)OCC(F)(F)F)c1 | 21.8 µM (inactive) | 20.5 µM (inactive) | 14.7 µM (inactive) | – | 17.5 µM (inactive) | 18.4 µM (inactive) | 18.5 µM (inactive) | 33.7 µM (inactive) | 29.8 µM (inactive) | 19.7 µM (inactive) | 17.9 µM (inactive) | 19 µM (inactive) | – | 22.3 µM (inactive) | 18.8 µM (inactive) | 20.3 µM (inactive) | 24.1 µM (inactive) | 19.4 µM (inactive) | 20.4 µM (inactive) | 4.31 µM (inactive)
CC1=CC(=O)[C@@H](O)[C@]2(C)[C@H]3[C@@]4(O)OC[C@]35[C@H]([C@@H](C)[C@H]4O)[C@@H](O)C(=O)O[C@@H]5C[C@@H]12 | 0.348 µM (active) | 0.318 µM (active) | 0.811 µM (active) | 0.21 µM (active) | 0.387 µM (active) | 0.106 µM (active) | 0.475 µM (active) | 0.25 µM (active) | 0.0438 µM (active) | 0.192 µM (active) | 0.597 µM (active) | 0.445 µM (active) | 0.339 µM (active) | 0.607 µM (active) | – | 0.115 µM (active) | 0.0706 µM (active) | 0.416 µM (active) | 0.181 µM (active) | 0.0743 µM (active)
